Experimental data: the supplement of paper PMC10307832

Columns and labels:
Test in all cases: relative viability (nuclei count vs DMSO), 5 days (fraction); higher = more cells survive
IDH-C35 + Foretinib = compound: Cc1ccccc1C(C(=O)NC1CCCCC1)N(C(=O)Cn1ccnc1C)c1cccc(F)c1 [IDH-C35] + COc1cc2c(Oc3ccc(NC(=O)C4(C(=O)Nc5ccc(F)cc5)CC4)cc3F)ccnc2cc1OCCCN1CCOCC1 [Foretinib] (partner 0.25 µM)
Outline: (§1)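 Relative viability equals treated-well nuclei counts divided by vehicle-well nuclei counts. Counts came from 4× images of lung cancer cell lines grown in 1536-well plates for 5 days after pin-tool dosing on the day after seeding. Dosing used one drug alone or a fixed anchor-drug dose plus five library-drug doses (not always all listed) in √10 steps, and values are medians of duplicate plates.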

IDH-C35 + Trametinib = compound: Cc1ccccc1C(C(=O)NC1CCCCC1)N(C(=O)Cn1ccnc1C)c1cccc(F)c1 [IDH-C35] + CC(=O)Nc1cccc(-n2c(=O)n(C3CC3)c(=O)c3c(Nc4ccc(I)cc4F)n(C)c(=O)c(C)c32)c1 [Trametinib] (partner 0.02 µM)
Outline: as §1

[1] = compound: CC1=C(C(=NN1)C)CC2=C(C3=C(S2)N(C(=O)N(C3=O)C)CC(C)C)C(=O)N4C[C@@H](CO4)O + Cc1nc(Nc2ncc(C(=O)Nc3c(C)cccc3Cl)s2)cc(N2CCN(CCO)CC2)n1 [Dasatinib] (partner 0.075 µM)
Outline: as §1

[2] = compound: CC1=C(C(=NN1)C)CC2=C(C3=C(S2)N(C(=O)N(C3=O)C)CC(C)C)C(=O)N4C[C@@H](CO4)O + CC(C)C[C@H](NC(=O)[C@H](Cc1ccccc1)NC(=O)c1cnccn1)B(O)O [Bortezomib] (partner 0.002 µM)
Outline: as §1

Cell Line	relative viability (IDH-C35 + Foretinib; first compound 0.08 µM)	relative viability (IDH-C35 + Foretinib; first compound 0.253 µM)	relative viability (IDH-C35 + Foretinib; first compound 0.8 µM)	relative viability (IDH-C35 + Foretinib; first compound 8 µM)	relative viability (IDH-C35 + Trametinib; first compound 0.08 µM)	relative viability (IDH-C35 + Trametinib; first compound 0.253 µM)	relative viability (IDH-C35 + Trametinib; first compound 0.8 µM)	relative viability (IDH-C35 + Trametinib; first compound 2.53 µM)	relative viability (IDH-C35 + Trametinib; first compound 8 µM)	relative viability ([1]; first compound 0.0025 µM)	relative viability ([1]; first compound 0.007906 µM)	relative viability ([1]; first compound 0.025 µM)	relative viability ([1]; first compound 0.07906 µM)	relative viability ([1]; first compound 0.25 µM)	relative viability ([2]; first compound 0.0025 µM)	relative viability ([2]; first compound 0.007906 µM)	relative viability ([2]; first compound 0.025 µM)	relative viability ([2]; first compound 0.07906 µM)	relative viability ([2]; first compound 0.25 µM)	relative viability (IDH-C35 + Foretinib; first compound 2.53 µM)
NCI-H2087	0.953	0.924	1.15	1.17	0.211	0.226	0.264	0.265	0.197	0.715	0.924	0.844	0.769	0.905	0.996	0.716	0.705	0.909	1.05	–
LC-2-ad	0.917	0.938	0.904	0.908	0.87	0.923	0.954	0.874	0.905	0.726	0.474	0.626	0.545	0.588	1.06	1.05	1.15	0.999	1.14	–
NCI-H1915	1.07	1.13	1.07	1.07	0.316	0.315	0.275	0.278	0.276	0.284	0.374	0.338	0.3	0.291	0.987	1.03	0.974	0.827	1.03	1.05
NCI-H2023	0.918	1	1.09	0.839	0.476	0.503	0.548	0.528	0.475	0.671	0.789	0.601	0.55	0.625	1.11	1.11	0.945	0.975	0.963	0.76
COR-L 105	0.948	1.16	0.898	0.898	0.444	0.451	0.446	0.485	0.39	0.477	0.298	0.34	0.273	0.341	0.841	0.763	0.882	0.73	0.802	1.07
RERF-LC-KJ	0.941	0.853	0.968	0.888	0.846	0.831	0.868	0.904	0.779	0.874	0.946	0.751	0.855	0.804	1.01	1.23	1.22	1.06	1.21	0.867
LXF-289	0.969	0.94	1.01	0.969	0.701	0.628	0.643	0.676	0.668	0.248	0.241	0.226	0.142	0.247	1	0.972	1	1.02	1.07	1.01
PC-14	1.03	0.909	0.978	0.889	0.645	0.695	0.735	0.768	0.705	0.281	0.261	0.254	0.278	0.269	0.841	0.86	0.896	0.972	1.03	0.988
NCI-H650	1.03	1.04	1.05	0.981	1.03	0.935	0.861	–	0.914	0.493	0.548	0.365	0.514	0.443	1.02	0.714	0.671	0.757	0.825	–
NCI-H1666	1.05	0.92	0.982	0.848	0.813	0.854	0.902	0.799	0.876	0.796	0.88	0.776	0.798	0.923	0.933	0.874	0.821	0.778	0.81	1.01
NCI-H2085	0.895	0.907	0.902	0.897	0.634	0.493	0.571	0.729	0.457	0.254	0.264	0.26	0.209	0.242	1.04	0.978	0.947	0.98	0.926	1
NCI-H1734	0.799	0.913	0.936	0.774	0.656	0.811	0.603	0.661	0.616	0.504	0.543	0.453	0.484	0.473	0.946	0.736	0.893	0.835	0.747	0.796
NCI-H2126	1.14	1.22	1.15	1.06	0.568	0.563	0.564	0.519	0.537	0.695	0.591	0.659	0.53	0.585	1.11	1.15	1.07	1.07	1.15	1.14
EMC-BAC-2	0.947	1.04	1.1	0.944	0.888	0.816	0.837	0.823	0.833	0.341	0.364	0.326	0.336	0.34	1.15	1.15	1.04	1.06	1.1	0.925
NCI-H1993	0.797	0.688	0.811	0.759	0.479	0.586	0.632	0.542	0.645	0.614	0.497	0.572	0.596	0.517	1.19	1.12	1.09	1.01	1.15	0.787
NCI-H520	0.788	0.749	0.821	0.654	0.645	0.669	0.818	0.665	0.721	0.231	0.194	0.161	0.154	0.179	0.646	0.413	0.192	0.23	0.28	0.72
